Assay results: article PMC4884932, “Selective brain penetrable Nurr1 transactivator for treating Parkinson's disease” (Oncotarget, 2016)

What was measured:
[1] = biological target: RXRβ (Homo sapiens, UniProt P28702); settings: CV-1 cells, 20h
Excerpt: (§1) For RXR: CV-1 cells were transfected with rCRBPII/RXRE-tk-Luc reporter gene and an expression vector for RXRα, β, or γ. For RAR: CV-1 cells were transfected with ERE-tk-Luc reporter gene and an expression vector for the appropriate ER-RARα, β, or γ. ER-RARs are fusion proteins, composed of the estrogen receptor (ER) DNA binding domain fused to the ligand binding domain of RARs. This system eliminates interference by the low level of endogenous RAR activity in CV1 cells as the readout comes only from the transfected ER-RAR. For PPARγ: CV-1 cells were transfected with 3x(rAOX/DR1)-tk-Luc reporter gene and an expression vector for PPARγ; for FXR: CV-1 cells were transfected with 3x(IBABP/IR1)-tk-Luc reporter gene and vectors for FXR and RXRα; for LXR: CV-1 cells were transfected with 3x(PLTP/LXRE)-tk-Luc reporter gene with vectors for LXRα or LXRβ. For Nurr1: COS7 cells were transfected with 3xNBRE-tk-luc reporter gene and full length Nurr1 with or without full-length RXRα plasmid. […] Luciferase data were normalized to co-transfected β-gal activity. Luciferase activity is expressed as percent of maximal activity obtained using specific agonists 9-cis-retinoic acid (RXR), retinoic acid (RAR), rosiglitazone (PPARγ), GW4064 (FXR), T0901317 (LXR).

[2] = biological target: PPARγ (Homo sapiens, UniProt P37231); settings: at physiological concentrations
Excerpt: as §1

[3] = IRX4204 content in the brain by LC/MS/MS; assay type: in vivo; settings: male, SD, oral, rat, 7 days repeated dosing 10 mg/kg/day gavage, one hour after the last dose
Procedure: Male SD rats underwent daily gavage with 10mg/kg/day for seven days. One hour after the last dose, rats were anesthetized with ketamine/xylazine and transcardially perfused with cold saline. Brains were isolated and homogenized with two volumes of phosphate buffer using ultrasonication. A 100μl sample of the homogenate was transferred to a 1.7ml centrifuge tube and mixed with 20μl of internal standard (100ng/ml of 13-cis retinoic acid-d5 in diluent). Then the sample was deproteinized with 300μl of acetonitrile, centrifuged, and the supernatant was transferred to an autosampler vial for analysis by LC/MS/MS. The calibration standards and the internal standard (13-cis retinoic acid-d5) were diluted in acetonitrile:butylatedhydroxyanisole:ethoxyquin:triethylamine (100:0.05:0.02:0.1, v/w/v/v).
The LC/MS system was comprised of Waters Acquity Ultra Performance Liquid Chromatography (UPLC) coupled to a XEVO-TQS (Waters). The samples were analyzed by reverse-phase HPLC using a Waters Atlantis T3 column (150 × 2.1mm, 5um). The mobile phase was nebulized using heated nitrogen in a Z-spray source/interface set to electrospray negative ionization mode. The ionized compounds were detected using MS/MS. […] The detection was linear between 2.5nM to 10nM.

[4] = biological target: T1, farnesoid X receptor (FXR) (Homo sapiens, UniProt Q96RI1); experiment: Receptor transactivation assay, FXR (CV-1 cells, FXR and RXRα vectors); assay type: cell-based; settings: at physiological concentrations
T1 sequence (Q96RI1 1-486): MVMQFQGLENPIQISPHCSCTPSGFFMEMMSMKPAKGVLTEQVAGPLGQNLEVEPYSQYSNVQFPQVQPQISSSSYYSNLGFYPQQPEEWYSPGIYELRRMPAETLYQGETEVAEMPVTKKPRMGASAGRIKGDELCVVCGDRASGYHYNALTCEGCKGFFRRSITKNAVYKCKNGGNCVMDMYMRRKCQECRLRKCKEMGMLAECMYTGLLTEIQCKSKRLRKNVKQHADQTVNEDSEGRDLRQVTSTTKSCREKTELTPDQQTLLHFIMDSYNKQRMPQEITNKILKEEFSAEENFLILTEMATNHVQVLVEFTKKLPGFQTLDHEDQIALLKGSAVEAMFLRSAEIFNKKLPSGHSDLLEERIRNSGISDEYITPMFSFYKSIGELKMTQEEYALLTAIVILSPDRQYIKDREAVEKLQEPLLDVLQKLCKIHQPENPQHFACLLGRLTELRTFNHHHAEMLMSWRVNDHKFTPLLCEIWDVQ
T1 sequence (P19793 1-462 partner): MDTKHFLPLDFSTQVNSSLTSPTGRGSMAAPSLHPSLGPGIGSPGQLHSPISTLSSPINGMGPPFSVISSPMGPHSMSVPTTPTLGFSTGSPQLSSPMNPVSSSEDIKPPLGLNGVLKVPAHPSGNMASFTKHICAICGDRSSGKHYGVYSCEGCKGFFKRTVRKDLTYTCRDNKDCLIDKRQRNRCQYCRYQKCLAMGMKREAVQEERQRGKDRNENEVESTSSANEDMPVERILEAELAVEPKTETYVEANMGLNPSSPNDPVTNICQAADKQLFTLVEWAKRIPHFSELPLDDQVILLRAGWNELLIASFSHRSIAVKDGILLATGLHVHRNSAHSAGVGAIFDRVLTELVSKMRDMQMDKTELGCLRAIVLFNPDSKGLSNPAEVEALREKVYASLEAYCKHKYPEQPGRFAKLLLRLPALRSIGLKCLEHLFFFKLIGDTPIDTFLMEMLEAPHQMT
Excerpt: as §1

[5] = Plasma protein binding by equilibrium dialysis, human plasma; assay type: in vitro ADME; settings: K3EDTA control plasma, 37°C, read-out: plasma protein binding, bound (converted)
Procedure: SD male rats were grouped into four groups: vehicle, 1mg/kg/day, 3mg/kg/day and 10mg/kg/day. Rats were treated with the designated dose by daily gavage. Acute plasma PK was conducted on day one and acute-on-chronic plasma PK was conducted on day 24. Pharmacokinetic assessment was conducted by collecting of blood at baseline (prior gavage), 0.25, 0.5, 1, 2, 4, 8, 12 and 24h post gavage. […] The spiked plasma was dialyzed at 37°C against an isotonic sodium phosphate buffer to achieve equilibrium. At the end of dialysis, the plasma and buffer level of IRX4204 were quantified by LC/MS/MS.

[6] = test system: 6-OHDA lesioned rats; experiment: Apomorphine-induced rotations in 6-OHDA lesioned rat model of PD; assay type: in vivo; settings: 10mg/kg/day gavage for three weeks, day 24 post-lesion
Procedure: All surgical procedures were performed under general anesthesia with ketamine/xylazine. 2μl 6-OHDA (20 mg/ml in 0.02% ascorbic acid) was stereotaxically injected into the right striatum of male SD rats. Lesion coordinates were set according to bregma and dura in mm: ML-3.7; AP-1.0; DV-5.5. The injection rate was 2μl/5 min and the injecting needle was left for 2 minutes after injection to avoid back flow. Apomorphine-induced rotations (see below) were assessed three days post-lesion and rats with ≥ 30 full contralateral rotation/30 minutes were included in the study.
Rats were randomly grouped into vehicle control group (n = 11) and drug treatment group (n = 10). […] The control group received DMSO/corn oil (vehicle). The treatment continued for three weeks.
Apomorphine (APO)-induced rotations were performed as described by Fisher et al.. Briefly, immediately after apomorphine injection (0.5 mg/kg body weight), animals were placed in an open area. A camera monitored the animal behavior and computerized software analyzed the number of contralateral and ipsilateral rotations in 30 minutes testing. Rotations were assessed three days post-lesion and after three weeks of treatment (24 days post-lesion). Data were expressed as average contralateral turns per minute.

RXRβ, sequence (P28702 whole entry, the tested form may be a part): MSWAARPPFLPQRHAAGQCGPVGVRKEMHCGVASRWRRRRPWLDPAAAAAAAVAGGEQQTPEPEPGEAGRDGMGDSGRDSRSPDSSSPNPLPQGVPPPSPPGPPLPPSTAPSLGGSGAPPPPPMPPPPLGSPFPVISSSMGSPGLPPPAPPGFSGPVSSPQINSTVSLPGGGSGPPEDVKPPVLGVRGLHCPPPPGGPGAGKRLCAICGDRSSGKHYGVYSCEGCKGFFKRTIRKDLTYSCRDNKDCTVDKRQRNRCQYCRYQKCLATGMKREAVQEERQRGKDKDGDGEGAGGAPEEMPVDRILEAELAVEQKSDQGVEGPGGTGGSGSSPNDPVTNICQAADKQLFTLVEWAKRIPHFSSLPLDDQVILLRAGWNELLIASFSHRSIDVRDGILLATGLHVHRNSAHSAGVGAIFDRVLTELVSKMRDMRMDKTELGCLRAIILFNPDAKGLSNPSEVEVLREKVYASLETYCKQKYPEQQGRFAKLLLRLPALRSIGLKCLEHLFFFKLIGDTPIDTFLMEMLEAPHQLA
PPARγ, sequence (P37231 whole entry, species assumed, one chain of several): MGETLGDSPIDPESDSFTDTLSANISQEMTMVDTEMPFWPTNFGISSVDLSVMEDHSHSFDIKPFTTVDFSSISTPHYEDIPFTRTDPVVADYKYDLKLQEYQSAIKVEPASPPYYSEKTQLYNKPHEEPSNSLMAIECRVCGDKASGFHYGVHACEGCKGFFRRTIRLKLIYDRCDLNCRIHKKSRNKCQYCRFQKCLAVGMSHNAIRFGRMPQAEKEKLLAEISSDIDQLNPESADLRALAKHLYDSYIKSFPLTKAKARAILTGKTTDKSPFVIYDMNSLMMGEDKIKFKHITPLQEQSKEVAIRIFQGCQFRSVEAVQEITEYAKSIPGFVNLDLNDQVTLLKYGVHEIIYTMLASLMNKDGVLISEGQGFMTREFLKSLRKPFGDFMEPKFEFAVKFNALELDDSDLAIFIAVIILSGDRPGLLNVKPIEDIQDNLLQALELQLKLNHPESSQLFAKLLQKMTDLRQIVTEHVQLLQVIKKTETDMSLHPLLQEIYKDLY

For CC(/C=C/[C@@H]1C[C@]1(C)c1ccc2c(c1)C(C)(C)CCC2(C)C)=C\C(=O)O [IRX4204], which “concentration that fully activates RXRβ” value [1] is on record?
Its value is 1 nM.

What about the “concentration that partially activates RXRβ” value [1] of the same compound?
The value was 0.1 nM.

And the “activation of RXR heterodimer of PPARγ” value [2]?
Its value is “does not activate”.

What about the concentration at 1 h [3] of the same compound?
Its concentration at 1 h is 11.5 ± 2.9 nM.

And the “activation of RXR heterodimer of FXR” value [4]?
The value was “does not activate”.

And the fraction unbound at 1 ug/ml [5]?
The fraction unbound at 1 ug/ml was 0.0064.

And the “APO-induced contralateral rotations versus baseline” value [6]?
The value was “did not differ significantly from baseline”.
